Test results reported in ChEMBL document CHEMBL4665916, “Human Insulin-like Peptide 5 (INSL5). Identification of a Simplified Version of Two-Chain Analog A13” (ACS Med Chem Lett, 2020).
pEC50, pKi: −log10 of the molar value. Bridge positions count the residues as written; N and C are the ends. Peptide text beside a SMILES is read from it. I, II: the chains in the order shown.

Tests used:
Relaxin-3 receptor 2 [1] = target: T1, Relaxin-3 receptor 2 (Homo sapiens, UniProt Q8TDU9); experiment: Competitive binding affinity to human RXFP4 receptor transfected in CHO-K1 cells in presence of europium-labeled Eu(A)-R3/I5 by fluorometric analysis; format: cell-based
T1 sequence (Q8TDU9 whole entry): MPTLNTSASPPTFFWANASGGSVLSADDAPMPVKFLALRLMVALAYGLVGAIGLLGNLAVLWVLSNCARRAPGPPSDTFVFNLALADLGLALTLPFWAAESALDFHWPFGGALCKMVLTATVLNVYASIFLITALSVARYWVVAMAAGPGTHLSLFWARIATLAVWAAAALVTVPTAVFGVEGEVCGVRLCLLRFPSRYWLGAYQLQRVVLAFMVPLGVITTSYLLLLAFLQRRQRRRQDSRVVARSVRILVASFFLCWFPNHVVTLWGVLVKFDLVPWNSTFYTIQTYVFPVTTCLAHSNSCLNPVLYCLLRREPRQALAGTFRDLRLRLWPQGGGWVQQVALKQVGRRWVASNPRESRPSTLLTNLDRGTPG

Relaxin-3 receptor 2 [2] = target: T1, Relaxin-3 receptor 2; experiment: Agonist activity at human RXFP4 transfected in CHO-K1 cells co-transfected with pCRE-beta-galactosidase reporter plasmid assessed as inhibition of forskolin-induced cAMP accumulation measured after 6 hrs by beta-galactosidase reporter gene assay; format: functional, cell-based

Compound	pKi (Relaxin-3 receptor 2 [1])	pEC50 (Relaxin-3 receptor 2 [2])
CC[C@H](C)[C@@H]1NC(=O)[C@H](Cc2ccc(O)cc2)NC(=O)[C@H]([C@@H](C)CC)NC(=O)[C@H](C(C)C)NC(=O)[C@H]([C@@H](C)O)NC(=O)[C@H](CCCNC(=N)N)NC(=O)[C@H]([C@@H](C)CC)NC(=O)[C@H](Cc2ccc(O)cc2)NC(=O)[C@H](CCC(=O)O)NC(=O)[C@H](CC(C)C)NC(=O)CNC(=O)[C@@H](NC(=O)[C@H](CC(C)C)NC(=O)[C@@H](N)CCCNC(=N)N)CSSC[C@H](N)C(=O)N[C@@H]([C@@H](C)O)C(=O)N[C@@H](CC(=O)O)C(=O)NCC(=O)N[C@@H](C)C(=O)N[C@@H](CO)C(=O)N[C@@H](CCSC)C(=O)N[C@@H](CCCCN)C(=O)N[C@@H](CC(=O)O)C(=O)N[C@@H](CC(C)C)C(=O)N[C@@H](CO)C(=O)N[C@@H](C)C(=O)N[C@@H](CC(C)C)C(=O)N[C@H](C(=O)O)CSSC[C@@H](C(=O)N[C@@H](C)C(=O)N[C@@H](CO)C(=O)N[C@@H](CO)C(=O)N[C@@H](CCCNC(=N)N)C(=O)N[C@@H](Cc2c[nH]c3ccccc23)C(=O)O)NC1=O (I: H-RLCGLEYIRTVIYICASSRW-OH / II: H-CTDGASMKDLSALC-OH; disulfide I:3-II:1, I:15-II:14)	7.30	7.85
CC[C@H](C)[C@@H]1NC(=O)[C@H](Cc2ccc(O)cc2)NC(=O)[C@H]([C@@H](C)CC)NC(=O)[C@H](C(C)C)NC(=O)[C@H]([C@@H](C)O)NC(=O)[C@H](CCCNC(=N)N)NC(=O)[C@H]([C@@H](C)CC)NC(=O)[C@H](Cc2ccc(O)cc2)NC(=O)[C@H](CCC(=O)O)NC(=O)[C@H](CC(C)C)NC(=O)CNC(=O)[C@@H](N)CSSC[C@H](N)C(=O)N[C@@H]([C@@H](C)O)C(=O)N[C@@H](CC(=O)O)C(=O)NCC(=O)N[C@@H](C)C(=O)N[C@@H](CO)C(=O)N[C@@H](CCSC)C(=O)N[C@@H](CCCCN)C(=O)N[C@@H](CC(=O)O)C(=O)N[C@@H](CC(C)C)C(=O)N[C@@H](CO)C(=O)N[C@@H](C)C(=O)N[C@@H](CC(C)C)C(=O)N[C@H](C(=O)O)CSSC[C@@H](C(=O)N[C@@H](C)C(=O)N[C@@H](CO)C(=O)N[C@@H](CO)C(=O)N[C@@H](CCCNC(=N)N)C(=O)N[C@@H](Cc2c[nH]c3ccccc23)C(=O)O)NC1=O (I: H-CGLEYIRTVIYICASSRW-OH / II: H-CTDGASMKDLSALC-OH; disulfide I:1-II:1, I:13-II:14)	–	8.08
CC[C@H](C)[C@@H]1NC(=O)[C@H](Cc2ccc(O)cc2)NC(=O)[C@H]([C@@H](C)CC)NC(=O)[C@H](C(C)C)NC(=O)[C@H]([C@@H](C)O)NC(=O)[C@H](CCCNC(=N)N)NC(=O)[C@H]([C@@H](C)CC)NC(=O)[C@H](Cc2ccc(O)cc2)NC(=O)[C@H](CCC(=O)O)NC(=O)[C@H](CC(C)C)NC(=O)CNC(=O)[C@@H](NC(=O)[C@H](CC(C)C)NC(=O)[C@H](CCCNC(=N)N)NC(=O)[C@@H](NC(=O)[C@@H](N)CO)C(C)C)CSSC[C@H](N)C(=O)N[C@@H]([C@@H](C)O)C(=O)N[C@@H](CC(=O)O)C(=O)NCC(=O)N[C@@H](C)C(=O)N[C@@H](CO)C(=O)N[C@@H](CCSC)C(=O)N[C@@H](CCCCN)C(=O)N[C@@H](CC(=O)O)C(=O)N[C@@H](CC(C)C)C(=O)N[C@@H](CO)C(=O)N[C@@H](C)C(=O)N[C@@H](CC(C)C)C(=O)N[C@H](C(=O)O)CSSC[C@@H](C(=O)N[C@@H](C)C(=O)N[C@@H](CO)C(=O)N[C@@H](CO)C(=O)N[C@@H](CCCNC(=N)N)C(=O)N[C@@H](Cc2c[nH]c3ccccc23)C(=O)O)NC1=O (I: H-SVRLCGLEYIRTVIYICASSRW-OH / II: H-CTDGASMKDLSALC-OH; disulfide I:5-II:1, I:17-II:14)	7.46	7.96
